Source: patent US9034862B2, “Compositions and methods for the treatment of cancer” (priority 2011, dated 2015)

Columns and labels:
[1] = system: human lung carcinoma A549; assay: MTT assay, A549; type: cell-based
Method: (§6) Solutions of the platinum compounds were freshly prepared in sterile PBS before use and their concentrations quantitated by atomic absorption spectroscopy. Cells were seeded on a 96-well plate (1200 cells per well for cancer cells and 1800 cells per well for the normal lung fibroblasts) in 100 μL RPMI or DMEM media, and incubated for 24 h. […] The cells were then treated with 20 μL of 3-(4,5-dimethylthiazol-2-yl)-2,5-diphenyltetrazolium bromide (MTT) (5 mg/mL in PBS) and incubated for 4 h. The medium was removed, 100 μL of DMSO was added to the cells, and the absorbance of the purple formazan was recorded at 560 nm using a BioTek Synergy HT multi-detection microplate plate reader. Each condition was performed in triplicate and three independent experiments were carried out for each cell line.
(§7) Human prostate carcinoma (PC3) and human cervix carcinoma (HeLa) cells were obtained from the ATCC. The human lung carcinoma cell line A549 was kindly provided by David E. Root (Whitehead Institute for Biomedical Research). Cells were incubated at 37° C. in 5% CO2 and grown in RPMI (PC3) or DMEM (A549 and HeLa) medium supplemented with 10% fetal bovine serum and 1% penicillin/streptomycin. Cells were passaged every 3 to 4 days and restarted from the frozen stock upon reaching passage number 20.
(§8) Solutions of the platinum agents were freshly prepared in sterile PBS before use and the platinum content was quantitated by AAS. Cells were seeded on 96 well plates (1200 cells per well) in 100 μL RPMI or DMEM media\ and incubated for 24 hours. […] The cells were then treated with 20 μL of 3-(4,5-dimethylthiazol-2-yl)-2,5-diphenyltetrazolium bromide (MTT) (5 mg/mL in PBS) and incubated for 4 h. The medium was removed, 100 μL of DMSO were added to the cells, and the absorbance of the purple formazan was recorded at 570 nm using a BioTek Synergy HT multi-detection microplate plate reader. For each cell line, three independent experiments were carried out in triplicate.

[2] = system: normal lung fibroblast MRC5; assay: MTT assay, MRC5; type: cell-based, human
Method: (§1) Human colon carcinoma HT29, human breast carcinoma MCF7, human bone sarcoma U2OS, human prostate carcinoma PC3, and human cervix carcinoma HeLa cells were obtained from the ATCC. A2780/CP70 cisplatin-resistant human ovarian cancer cells were kindly provided by Dr. Stephen B. Howell (Moores UCSD Cancer Center) and the human lung carcinoma cell lines A549 and normal lung fibroblast MRC5 by David E. Root (Whitehead Institute for Biomedical Research). Cells were incubated at 37° C. in 5% CO2 and grown in RPMI (HT29, A2780/CP70, and PC3) or DMEM (A549, MRC5, HeLa, MCF7, and U2OS) medium supplemented with 10% fetal bovine serum and 1% penicillin/streptomycin. Cells were passed every 3 to 4 days and restarted from a frozen stock upon reaching pass number 20.
(§2) Solutions of the platinum compounds were freshly prepared in sterile PBS before use and their concentrations quantitated by atomic absorption spectroscopy. […] The cells were then treated with 20 μL of 3-(4,5-dimethylthiazol-2-yl)-2,5-diphenyltetrazolium bromide (MTT) (5 mg/mL in PBS) and incubated for 4 h. The medium was removed, 100 μL of DMSO was added to the cells, and the absorbance of the purple formazan was recorded at 560 nm using a BioTek Synergy HT multi-detection microplate plate reader. Each condition was performed in triplicate and three independent experiments were carried out for each cell line.

[3] = system: Human colon carcinoma HT29; assay: MTT assay, HT29; type: cell-based
Method: as §1, §2

[4] = system: GLuc expression in A549 cells; assay: Transcription assay, globally platinated pGLuc, A549; type: cell-based, human; details: for transcription level (normalized against unplatinated plasmid): Pt/DNA ratio of […] for phenanthriplatin
Method: (§3) Transfection of transcription probes into A549 and HT29 cells with the pGLuc plasmid was carried out using liposomal transfecting agents. Determination of expression levels was tested by Luciferase assays monitored by a luminometer (J. Am. Chem. Soc. 2010, 132, 7429-7435). A549 cells were plated in 96-well plates at 2,000 cells/well and HT29 cells were plated in 96-well plates at 6,000 cells/well. After 48 h incubation (at ˜30% confluence), cells were transfected with 50 ng of platinated plasmids in 25 μL Opti-MEM and 0.125 μL Lipofectamine 2000, and subsequently 50 μL of antibiotics-free DMEM supplemented with 10% FBS. After 2 h, the cells were washed with medium and 100 μL of fresh medium was added. The experiment was carried out in quadruplicate.
(§4) GLuc activity was monitored using a luminescence plate reader (Synergy 2, BioTek, Winooski, Vt., USA). A 10 μL volume of medium at different time points (12, 24, 36, 48, 60 h) was transferred into opaque white 96-well plates, and 25 μL of GLuc assay solution (10 μM colelenterazine (NanoLight Technologies, Pinetop, Ariz., USA) in 2.5 mM acidified methanol (100 mM HCl), buffer (10 mM Tris-HCl pH 7.8, 1 mM EDTA, 0.6 M NaCl)) was added by the automatic injector of the instrument.
(§5) In another embodiment, A549 or HT29 cells were transfected using the platinated transcription probes, and transcription levels were investigated by determining GLuc expression as measured by […] following addition of coelenterazine as a substrate for the exported enzyme. The emission intensities were normalized against unplatinated plasmids as a control. Transcription profiles were obtained by plotting normalized levels of GLuc expression against platination levels (Pt/plasmid ratio) at five different time points. […] An increase in D0 value at different time points represents restoration of transcription.

[5] = equimolar N-AcMet, 37° C.
Method: NMR spectra were collected on a Varian 500 spectrometer equipped with a triple-resonance broadband inverse probe and a variable temperature unit. The 1-D ^1H NMR kinetic studies were performed in duplicate as a standard time-arrayed experiment using a variable delayed list. Incremented 1-D spectra were processed in exactly the same way and signals of aromatic amine ligands from platinum compounds were integrated. The relative concentrations of the platinum compound at each time point were calculated from peak integrals. […] Reactions of platinum compounds with N-AcMet were performed in NMR tubes containing 2 mM of the Pt complex and 2 mM (1 equiv) of N-AcMet in 10 mM PBS buffer, D2O, pH*7.4 at 37° C. […] Deuterated 3-(trimethylsilyl)propionic acid sodium salt (TMS-PFASS) was used as an internal standard. The pH* values are the measured pH values without correction for the effect of deuterium on the electrode.

[6] = system: human prostate carcinoma PC3; assay: MTT assay, PC3; type: cell-based; details: Table 3, PC3 Prostate, 72-h incubation
Method: as §6, §7, §8

[7] = D2O at 37° C.
Method: (§9) The 1-D ^1H NMR kinetic studies were performed in duplicate as a standard time-arrayed experiment using a variable delayed list. Incremented 1-D spectra were processed in exactly the same way and signals of aromatic amine ligands from platinum compounds were integrated. The relative concentrations of the platinum compound at each time point were calculated from peak integrals. […] Reactions of platinum compounds with 5′-dGMP were performed in NMR tubes containing 2 mM of the platinum compounds and 32 mM (16 equiv) of 5′-dGMP in 10 mM PBS buffer, D2O, pH*7.4 at 37° C.

5′-dGMP = details: 16 equiv 5′-dGMP, 37° C., PBS pH 7.4
Method: as §9

[8] = system: human cervix carcinoma HeLa cells; assay: MTT assay, HeLa; type: cell-based; details: 72-h incubation
Method: as §6, §7, §8

[9] = system: human breast carcinoma MCF7; assay: MTT assay, MCF7; type: cell-based; details: Table 3, MCF7 Breast, 72-h incubation
Method: as §1, §2

calf thymus DNA = assay: Ethidium bromide DNA-binding competition, Scatchard analysis; set-up: key: competitive (type A); non-competitive (type D); both (type B); No inhibition of ethidium binding is labeled as type C
Excerpt: Using this approach, it is possible to determine whether the inhibition of ethidium binding is competitive (type A), non-competitive (type D), or both (type B). No inhibition of ethidium binding is labeled as type C.

pGLuc plasmid = assay: Platination of pGLuc plasmid; type: biochemical
Method: The resulting mixtures were dialyzed (molecular weight cut-off 3.5 kDa) against ddH2O overnight at 4° C. with five changes of ddH2O. The rb values (bound Pt/nucleotide) were determined by UV/Vis and atomic absorption spectroscopy.
In one embodiment, the ratio of bound platinum per plasmid was determined by measuring the Pt concentration by atomic absorption spectroscopy and the DNA concentration by UV/Vis spectroscopy.

human bone sarcoma U2OS = assay: MTT assay, U2OS; type: cell-based; details: 72-h incubation
Method: as §1, §2

NTera2 = assay: MTT assay, NTera2; type: cell-based, human; details: Table 3, NTera2 Testis, 72-h incubation
Method: as §6

[10] = system: GLuc expression in HT29 cells; assay: Transcription assay, globally platinated pGLuc, HT29; type: cell-based, human; details: for transcription level (normalized against unplatinated plasmid): Pt/DNA ratio of […] for phenanthriplatin
Method: as §3, §4, §5

Question: For “cis-[Pt(NH3)2 (1-methylimidazole)-Cl]NO3”, which IC50 ([1]; Table 5, A549, 72-h incubation) is on record?
Answer: 62 ± 0.8 µM

Question: And the IC50 ([2]; Table 5, MRC5, 72-h incubation)?
Answer: 40.5 ± 1.1 µM

Question: And the IC50 ([3]; Table 5, HT29, 72-h incubation)?
Answer: 53.4 ± 8.5 µM

Question: What does the source list for `N.N.O=[N+]([O-])[O-].[Cl][Pt+].c1ccncc1` [pyriplatin, cis-[Pt(NH3)2(pyridine)Cl]NO3]?
Answer: transcription level (normalized against unplatinated plasmid) ([4]; A549, 12 h): 55.2%; D0 (Pt lesions per plasmid required to reduce transcription levels to 37% of control) ([4]; A549, 12 h after transfection): 39.2 Pt/plasmid; D0 (Pt lesions per plasmid required to reduce transcription levels to 37% of control) ([4]; A549, 24 h after transfection): 58.5 Pt/plasmid; D0 (Pt lesions per plasmid required to reduce transcription levels to 37% of control) ([4]; A549, 36 h after transfection): 68.8 Pt/plasmid; D0 (Pt lesions per plasmid required to reduce transcription levels to 37% of control) ([4]; A549, 48 h after transfection): 85.2 Pt/plasmid; transcription level (normalized against unplatinated plasmid) ([4]; A549, 60 h): 66.8%; D0 (Pt lesions per plasmid required to reduce transcription levels to 37% of control) ([4]; A549, 60 h after transfection): 89.1 Pt/plasmid; reaction with N-AcMet more rapid than that for phenanthriplatin [5]: > 10 fold; second-order rate constant, reaction with N-AcMet [5]: 0.156 M⁻¹ s⁻¹; IC50 [6]: 47.9 ± 9.2 µM; IC50 ([1]; Table 3, A549 Lung, 72-h incubation): 52.1 ± 2.3 µM; IC50 ([1]; Table 4, A549 human lung carcinoma, 72 h incubation): 52.1 ± 2.25 µM; IC50 ([1]; Table 5, A549, 72-h incubation): 52.1 ± 2.3 µM; equilibrium constant for aquation [7]: approximately 0.05; time after which aquation reaction is complete (equilibrium with aqua analogue) [7]: 1 h; pseudo-first order rate constant, reaction with 5′-dGMP (5′-dGMP): 0.29 h⁻¹; IC50 ([2]; Table 4, MRC5 normal lung fibroblast, 72 h incubation): 92.1 ± 9.9 µM; IC50 ([2]; Table 5, MRC5, 72-h incubation): 92.1 ± 9.9 µM; IC50 ([8]; Table 3, HeLa Cervix): 31.3 ± 2.8 µM; IC50 ([8]; Table 5, HeLa): 31.3 ± 2.8 µM; IC50 [9]: 109 ± 10 µM; IC50 ([3]; Table 3, HT29 Colorectal, 72-h incubation): 144 ± 10 µM; IC50 ([3]; Table 5, HT29, 72-h incubation): 144 ± 10 µM; type of inhibition of ethidium binding (Scatchard) (calf thymus DNA; 12-h incubation period): type C; type of inhibition of ethidium binding (Scatchard) (calf thymus DNA; 1 min incubation period): type C; Pt per plasmid (pGLuc plasmid; rf 0.0016, 16 h at 37° C.): 13.33 Pt per plasmid; rb (bound Pt/nucleotide) (pGLuc plasmid; rf 0.0016, 16 h at 37° C.): 0.0017; Pt per plasmid (pGLuc plasmid; rf 0.004, 16 h at 37° C.): 31.19 Pt per plasmid; rb (bound Pt/nucleotide) (pGLuc plasmid; rf 0.004, 16 h at 37° C.): 0.0039; Pt per plasmid (pGLuc plasmid; rf 0.0076, 16 h at 37° C.): 57.96 Pt per plasmid; rb (bound Pt/nucleotide) (pGLuc plasmid; rf 0.0076, 16 h at 37° C.): 0.0073; Pt per plasmid (pGLuc plasmid; rf 0.015, 16 h at 37° C.): 117.31 Pt per plasmid; rb (bound Pt/nucleotide) (pGLuc plasmid; rf 0.015, 16 h at 37° C.): 0.0015; IC50 (human bone sarcoma U2OS; Table 3, U2OS Bone): 78.9 ± 6.7 µM; IC50 (human bone sarcoma U2OS; Table 5, U2OS): 78.9 ± 6.7 µM; IC50 (NTera2): 5.16 ± 0.96 µM; transcription level (normalized against unplatinated plasmid) ([10]; HT29, 12 h): 55.3%; D0 (Pt lesions per plasmid required to reduce transcription levels to 37% of control) ([10]; HT29, 12 h after transfection): 35.6 Pt/plasmid; D0 (Pt lesions per plasmid required to reduce transcription levels to 37% of control) ([10]; HT29, 24 h after transfection): 40.5 Pt/plasmid; D0 (Pt lesions per plasmid required to reduce transcription levels to 37% of control) ([10]; HT29, 36 h after transfection): 42.9 Pt/plasmid; D0 (Pt lesions per plasmid required to reduce transcription levels to 37% of control) ([10]; HT29, 48 h after transfection): 44.5 Pt/plasmid; transcription level (normalized against unplatinated plasmid) ([10]; HT29, 60 h): 75.2%; D0 (Pt lesions per plasmid required to reduce transcription levels to 37% of control) ([10]; HT29, 60 h after transfection): 49.3 Pt/plasmid

Question: Which IC50 ([1]; Table 5, A549, 72-h incubation) does the source give for `N.N.O=[N+]([O-])[O-].[Cl][Pt+].c1ccc2cnccc2c1` [cis-[Pt(NH3)2(isoquinoline)Cl]NO3] here?
Answer: 11.5 ± 0.4 µM

Question: And the IC50 ([2]; Table 5, MRC5, 72-h incubation)?
Answer: 26.4 ± 1 µM

Question: What about the IC50 ([3]; Table 5, HT29, 72-h incubation) of the same compound?
Answer: 45.6 ± 2.7 µM

Question: Which IC50 ([1]; Table 5, A549, 72-h incubation) does the source give for `N.N.O=[N+]([O-])[O-].[Cl][Pt+].c1ccc2nc3ccccc3cc2c1` [cis-[Pt(NH3)2(acridine)Cl]NO3] here?
Answer: 3.74 ± 0.01 µM

Question: And the IC50 ([2]; Table 5, MRC5, 72-h incubation)?
Answer: 9.17 ± 0.47 µM

Question: What about the IC50 ([8]; Table 5, HeLa) of the same compound?
Answer: 2.69 ± 0.1 µM

Question: And the IC50 ([3]; Table 5, HT29, 72-h incubation)?
Answer: 13.5 ± 0.7 µM

Question: And the IC50 (human bone sarcoma U2OS; Table 5, U2OS)?
Answer: 4.42 ± 0.31 µM

Question: Which results are given for `Cc1cccnc1N.N.N.O=[N+]([O-])[O-].[Cl][Pt+]` [cis-[Pt(NH3)2 (2-amino-3-methylpyridine)-Cl]NO3]?
Answer: IC50 ([1]; Table 5, A549, 72-h incubation): 47.1 ± 1.4 µM; IC50 ([2]; Table 5, MRC5, 72-h incubation): 51.7 ± 7.7 µM; IC50 ([3]; Table 5, HT29, 72-h incubation): 72.9 ± 4.6 µM
